Bridge positions count the residues as written; N and C are the ends. Square brackets hold non-standard residues; d marks the D form. Peptide text beside a SMILES is read from it. * marks the point of attachment. Ala(morpholin-4-yl) = N[C@@H](CN1CCOCC1)C(=O)O; Phe(4-CONH2) = NC(=O)c1ccc(C[C@H](N)C(=O)O)cc1; Phe(4-COOH) = N[C@@H](Cc1ccc(C(=O)O)cc1)C(=O)O; Phe(4-CH2NH2) = NCc1ccc(C[C@H](N)C(=O)O)cc1; Bip = N[C@@H](Cc1ccc(-c2ccccc2)cc1)C(=O)O; Phe(3-CN) = N#Cc1cccc(C[C@H](N)C(=O)O)c1; Phe(3-F) = N[C@@H](Cc1cccc(F)c1)C(=O)O; Phe(3-Me) = Cc1cccc(C[C@H](N)C(=O)O)c1; Phe(4-F) = N[C@@H](Cc1ccc(F)cc1)C(=O)O; His(τ-Me) = Cn1cnc(C[C@H](N)C(=O)O)c1; Phe(2-Me) = Cc1ccccc1C[C@H](N)C(=O)O; His(π-Me) = Cn1cncc1C[C@H](N)C(=O)O; Cha = N[C@@H](CC1CCCCC1)C(=O)O; Cit = NC(=O)NCCC[C@H](N)C(=O)O; Carboxymethyl = O=C(O)C*; Orn = NCCC[C@H](N)C(=O)O; Aun = NCCCCCCCCCCC(=O)O; Dab = NCC[C@H](N)C(=O)O; Dap = NC[C@H](N)C(=O)O; AEEA = NCCOCCOCC(=O)O
Target: T1, PD-1/PD-L1 interaction (PE-labeled human PD-L1-Ig binding to Jurkat cell line over-expressing human PD-1) (Homo sapiens, UniProt Q15116)
T1 construct: expressed in transfected cells; host or cells: Jurkat
Experiment: Jurkat-PD-1 Cell Binding High-Content Screening Assay (CBA)
Type: cell-based
Details: Jurkat cell line over-expressing human PD-1; PE-labeled PD-L1-Ig 20 nM final; read-out: Jurkat hPD1-PDL1 IC50
Outline: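 Binding of fluorescent PD-L1-Ig (20 nM final) to Jurkat-PD-1 cells was measured by automated imaging after 1 h, following a 2 h compound pre-treatment at 37° C.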

T1 sequence (Q15116 25-288): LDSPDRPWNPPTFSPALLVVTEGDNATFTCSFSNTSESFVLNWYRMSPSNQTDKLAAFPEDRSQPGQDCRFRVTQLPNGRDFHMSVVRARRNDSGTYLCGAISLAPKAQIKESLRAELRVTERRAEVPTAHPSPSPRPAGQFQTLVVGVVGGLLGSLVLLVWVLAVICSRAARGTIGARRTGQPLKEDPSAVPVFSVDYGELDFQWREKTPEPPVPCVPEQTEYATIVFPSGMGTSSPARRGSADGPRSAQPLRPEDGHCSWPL

IC50 [µM]	SMILES
0.0145	Cc1cccc(C[C@@H]2NC(=O)[C@H](CC(=O)O)NC(=O)[C@H](Cc3ccc(OCC(=O)O)cc3)NC(=O)[C@H](Cc3cncn3C)NC(=O)CSC[C@@H](C(=O)N[C@@H](CCN)C(=O)NCCCCCCCCCCC(=O)O)NC(=O)[C@H](CCCCN)NC(=O)[C@H](C(C)C)NC(=O)[C@H](CC3CCCCC3)NC(=O)[C@H](CCN)NC(=O)[C@@H](CC(C)C)NC(=O)[C@H](CCCN)NC(=O)[C@H](C(C)C)NC(=O)[C@H](Cc3ccc(-c4ccccc4)cc3)NC(=O)[C@H](C(C)C)NC2=O)c1 [Compound 2035] ({CH2CO}-[His(π-Me)]Y(Carboxymethyl)D[Phe(3-Me)]V[Bip]V[Orn][dL][Dab][Cha]VKC[Dab][Aun]-OH; thioether N-14)
0.0144	Cc1cccc(C[C@@H]2NC(=O)[C@H](CC(=O)O)NC(=O)[C@H](Cc3ccc(OCC(=O)O)cc3)NC(=O)[C@H](Cc3cn(C)cn3)NC(=O)CSC[C@@H](C(=O)N[C@@H](CCN)C(=O)NCCCCCCCCCCC(=O)O)NC(=O)[C@H]([C@@H](C)O)NC(=O)[C@H](C(C)C)NC(=O)[C@H](CC3CCCCC3)NC(=O)[C@H](CCN)NC(=O)[C@@H](CC(C)C)NC(=O)[C@H](CCCN)NC(=O)[C@H](CCCNC(N)=O)NC(=O)[C@H](Cc3ccc(-c4ccccc4)cc3)NC(=O)[C@H](C(C)C)NC2=O)c1 [Compound 2036] ({CH2CO}-[His(τ-Me)]Y(Carboxymethyl)D[Phe(3-Me)]V[Bip][Cit][Orn][dL][Dab][Cha]VTC[Dab][Aun]-OH; thioether N-14)
0.0169	Cc1cccc(C[C@@H]2NC(=O)[C@H](CC(=O)O)NC(=O)[C@H](Cc3ccc(OCC(=O)O)cc3)NC(=O)[C@H](Cc3cn(C)cn3)NC(=O)CSC[C@@H](C(=O)N[C@@H](CCN)C(=O)NCCCCCCCCCCC(=O)O)NC(=O)[C@H](CCCCN)NC(=O)[C@H](C(C)C)NC(=O)[C@H](CC3CCCCC3)NC(=O)[C@H](CCN)NC(=O)[C@@H](CC(C)C)NC(=O)[C@H](CCCN)NC(=O)[C@H](C(C)C)NC(=O)[C@H](Cc3ccc(-c4ccccc4)cc3)NC(=O)[C@H](C(C)C)NC2=O)c1 [Compound 2037] ({CH2CO}-[His(τ-Me)]Y(Carboxymethyl)D[Phe(3-Me)]V[Bip]V[Orn][dL][Dab][Cha]VKC[Dab][Aun]-OH; thioether N-14)
0.0387	Cc1cccc(C[C@@H]2NC(=O)[C@H](CC(=O)O)NC(=O)[C@H](Cc3ccc(OCC(=O)O)cc3)NC(=O)[C@H](CN3CCOCC3)NC(=O)CSC[C@@H](C(=O)N[C@@H](CCN)C(=O)NCCCCCCCCCCC(=O)O)NC(=O)[C@H]([C@@H](C)O)NC(=O)[C@H](C(C)C)NC(=O)[C@H](CC3CCCCC3)NC(=O)[C@H](CCN)NC(=O)[C@@H](CC(C)C)NC(=O)[C@H](CCCN)NC(=O)[C@H](CCCNC(N)=O)NC(=O)[C@H](Cc3ccc(-c4ccccc4)cc3)NC(=O)[C@H](C(C)C)NC2=O)c1 [Compound 2038] ({CH2CO}-[Ala(morpholin-4-yl)]Y(Carboxymethyl)D[Phe(3-Me)]V[Bip][Cit][Orn][dL][Dab][Cha]VTC[Dab][Aun]-OH; thioether N-14)
0.0194	Cc1cccc(C[C@@H]2NC(=O)[C@H](CC(=O)O)NC(=O)[C@H](Cc3ccc(OCC(=O)O)cc3)NC(=O)[C@H](CN3CCOCC3)NC(=O)CSC[C@@H](C(=O)N[C@@H](CCN)C(=O)NCCCCCCCCCCC(=O)O)NC(=O)[C@H](CCCCN)NC(=O)[C@H](C(C)C)NC(=O)[C@H](CC3CCCCC3)NC(=O)[C@H](CCN)NC(=O)[C@@H](CC(C)C)NC(=O)[C@H](CCCN)NC(=O)[C@H](C(C)C)NC(=O)[C@H](Cc3ccc(-c4ccccc4)cc3)NC(=O)[C@H](C(C)C)NC2=O)c1 [Compound 2039] ({CH2CO}-[Ala(morpholin-4-yl)]Y(Carboxymethyl)D[Phe(3-Me)]V[Bip]V[Orn][dL][Dab][Cha]VKC[Dab][Aun]-OH; thioether N-14)
0.0082	Cc1cccc(C[C@@H]2NC(=O)[C@H](CC(=O)O)NC(=O)[C@H](Cc3ccc(OCC(=O)O)cc3)NC(=O)[C@H](CN)NC(=O)CSC[C@@H](C(=O)N[C@@H](CCN)C(=O)NCCOCCOCC(=O)NCCCCCCCCCCC(=O)O)NC(=O)[C@H](CCCN)NC(=O)[C@H](C(C)C)NC(=O)[C@H](CC3CCCCC3)NC(=O)[C@H](CCN)NC(=O)[C@@H](CC(C)C)NC(=O)[C@H](CCCN)NC(=O)[C@H](Cc3ccccc3)NC(=O)[C@H](Cc3ccc(-c4ccccc4)cc3)NC(=O)[C@H](Cc3ccc(O)cc3)NC2=O)c1 [Compound 2041] ({CH2CO}-[Dap]Y(Carboxymethyl)D[Phe(3-Me)]Y[Bip]F[Orn][dL][Dab][Cha]V[Orn]C[Dab][AEEA][Aun]-OH; thioether N-14)
0.005	Cc1cccc(C[C@@H]2NC(=O)[C@H](CC(=O)O)NC(=O)[C@H](Cc3ccc(OCC(=O)O)cc3)NC(=O)[C@H](CN)NC(=O)CSC[C@@H](C(=O)N[C@@H](CCN)C(=O)NCCOCCOCC(=O)NCCCCCCCCCCC(=O)O)NC(=O)[C@H](CCCN)NC(=O)[C@H](C(C)C)NC(=O)[C@H](CC3CCCCC3)NC(=O)[C@H](CCN)NC(=O)[C@@H](CC(C)C)NC(=O)[C@H](CCCN)NC(=O)[C@H](Cc3ccc(C(=O)O)cc3)NC(=O)[C@H](Cc3ccc(-c4ccccc4)cc3)NC(=O)[C@H](Cc3ccc(O)cc3)NC2=O)c1 [Compound 2042] ({CH2CO}-[Dap]Y(Carboxymethyl)D[Phe(3-Me)]Y[Bip][Phe(4-COOH)][Orn][dL][Dab][Cha]V[Orn]C[Dab][AEEA][Aun]-OH; thioether N-14)
0.0072	Cc1cccc(C[C@@H]2NC(=O)[C@H](CC(=O)O)NC(=O)[C@H](Cc3ccc(OCC(=O)O)cc3)NC(=O)[C@H](CN)NC(=O)CSC[C@@H](C(=O)N[C@@H](CCN)C(=O)NCCOCCOCC(=O)NCCCCCCCCCCC(=O)O)NC(=O)[C@H](CCCN)NC(=O)[C@H](C(C)C)NC(=O)[C@H](CC3CCCCC3)NC(=O)[C@H](CCN)NC(=O)[C@@H](CC(C)C)NC(=O)[C@H](CCCN)NC(=O)[C@H](Cc3ccc(C(N)=O)cc3)NC(=O)[C@H](Cc3ccc(-c4ccccc4)cc3)NC(=O)[C@H](Cc3ccc(O)cc3)NC2=O)c1 [Compound 2045] ({CH2CO}-[Dap]Y(Carboxymethyl)D[Phe(3-Me)]Y[Bip][Phe(4-CONH2)][Orn][dL][Dab][Cha]V[Orn]C[Dab][AEEA][Aun]-OH; thioether N-14)
0.0097	Cc1cccc(C[C@@H]2NC(=O)[C@H](CC(=O)O)NC(=O)[C@H](Cc3ccc(OCC(=O)O)cc3)NC(=O)[C@H](CN)NC(=O)CSC[C@@H](C(=O)N[C@@H](CCN)C(=O)NCCOCCOCC(=O)NCCCCCCCCCCC(=O)O)NC(=O)[C@H](CCCN)NC(=O)[C@H](C(C)C)NC(=O)[C@H](CC3CCCCC3)NC(=O)[C@H](CCN)NC(=O)[C@@H](CC(C)C)NC(=O)[C@H](CCCN)NC(=O)[C@H](Cc3ccc(CN)cc3)NC(=O)[C@H](Cc3ccc(-c4ccccc4)cc3)NC(=O)[C@H](Cc3ccc(O)cc3)NC2=O)c1 [Compound 2046] ({CH2CO}-[Dap]Y(Carboxymethyl)D[Phe(3-Me)]Y[Bip][Phe(4-CH2NH2)][Orn][dL][Dab][Cha]V[Orn]C[Dab][AEEA][Aun]-OH; thioether N-14)
0.0124	Cc1cccc(C[C@@H]2NC(=O)[C@H](CC(=O)O)NC(=O)[C@H](Cc3ccc(OCC(=O)O)cc3)NC(=O)[C@H](CN)NC(=O)CSC[C@@H](C(=O)N[C@@H](CCN)C(=O)NCCOCCOCC(=O)NCCCCCCCCCCC(=O)O)NC(=O)[C@H](CCCN)NC(=O)[C@H](C(C)C)NC(=O)[C@H](CC3CCCCC3)NC(=O)[C@H](CCN)NC(=O)[C@@H](CC(C)C)NC(=O)[C@H](CCCN)NC(=O)[C@H](Cc3ccccc3C)NC(=O)[C@H](Cc3ccc(-c4ccccc4)cc3)NC(=O)[C@H](Cc3ccc(O)cc3)NC2=O)c1 [Compound 2048] ({CH2CO}-[Dap]Y(Carboxymethyl)D[Phe(3-Me)]Y[Bip][Phe(2-Me)][Orn][dL][Dab][Cha]V[Orn]C[Dab][AEEA][Aun]-OH; thioether N-14)
0.0169	Cc1cccc(C[C@@H]2NC(=O)[C@H](CC(=O)O)NC(=O)[C@H](Cc3ccc(OCC(=O)O)cc3)NC(=O)[C@H](CN)NC(=O)CSC[C@@H](C(=O)N[C@@H](CCN)C(=O)NCCOCCOCC(=O)NCCCCCCCCCCC(=O)O)NC(=O)[C@H](CCCN)NC(=O)[C@H](C(C)C)NC(=O)[C@H](CC3CCCCC3)NC(=O)[C@H](CCN)NC(=O)[C@@H](CC(C)C)NC(=O)[C@H](CCCN)NC(=O)[C@H](Cc3ccc(F)cc3)NC(=O)[C@H](Cc3ccc(-c4ccccc4)cc3)NC(=O)[C@H](Cc3ccc(O)cc3)NC2=O)c1 [Compound 2049] ({CH2CO}-[Dap]Y(Carboxymethyl)D[Phe(3-Me)]Y[Bip][Phe(4-F)][Orn][dL][Dab][Cha]V[Orn]C[Dab][AEEA][Aun]-OH; thioether N-14)
0.0326	Cc1cccc(C[C@@H]2NC(=O)[C@H](CC(=O)O)NC(=O)[C@H](Cc3ccc(OCC(=O)O)cc3)NC(=O)[C@H](CN)NC(=O)CSC[C@@H](C(=O)N[C@@H](CCN)C(=O)NCCOCCOCC(=O)NCCCCCCCCCCC(=O)O)NC(=O)[C@H](CCCN)NC(=O)[C@H](C(C)C)NC(=O)[C@H](CC3CCCCC3)NC(=O)[C@H](CCN)NC(=O)[C@@H](CC(C)C)NC(=O)[C@H](CCCN)NC(=O)[C@H](Cc3cccc(C#N)c3)NC(=O)[C@H](Cc3ccc(-c4ccccc4)cc3)NC(=O)[C@H](Cc3ccc(O)cc3)NC2=O)c1 [Compound 2051] ({CH2CO}-[Dap]Y(Carboxymethyl)D[Phe(3-Me)]Y[Bip][Phe(3-CN)][Orn][dL][Dab][Cha]V[Orn]C[Dab][AEEA][Aun]-OH; thioether N-14)
0.0147	Cc1cccc(C[C@@H]2NC(=O)[C@H](CC(=O)O)NC(=O)[C@H](Cc3ccc(OCC(=O)O)cc3)NC(=O)[C@H](CN)NC(=O)CSC[C@@H](C(=O)N[C@@H](CCN)C(=O)NCCOCCOCC(=O)NCCCCCCCCCCC(=O)O)NC(=O)[C@H](CCCN)NC(=O)[C@H](C(C)C)NC(=O)[C@H](CC3CCCCC3)NC(=O)[C@H](CCN)NC(=O)[C@@H](CC(C)C)NC(=O)[C@H](CCCN)NC(=O)[C@H](Cc3cccc(F)c3)NC(=O)[C@H](Cc3ccc(-c4ccccc4)cc3)NC(=O)[C@H](Cc3ccc(O)cc3)NC2=O)c1 [Compound 2052] ({CH2CO}-[Dap]Y(Carboxymethyl)D[Phe(3-Me)]Y[Bip][Phe(3-F)][Orn][dL][Dab][Cha]V[Orn]C[Dab][AEEA][Aun]-OH; thioether N-14)

From patent US20260022142A1, “MACROCYCLIC IMMUNOMODULATORS” (Bristol-Myers Squibb Company, priority 2022, published 2026)
